Measurements taken from US20210069272A1, “METHODS FOR SKIN WHITENING, ULTRAVIOLET RADIATION PROTECTION AND SUPPRESSION OF GLYCATION USING GREEN MANGO EXTRACTS AND COMPOUNDS OBTAINED THEREFROM” (TCI CO., LTD., priority 2019, published 2021).

Assays:
porcine collagen = test: Anti-glycation assay, AGEs formation due to collagen glycation with fructose; type: biochemical; conditions: 100 μg/mL aqueous solution, 50° C., 24 hours
Procedure: In order to evaluate the anti-glycation activity of the green mango extract, an anti-glycation assay was performed to determine the inhibitory effect of the green mango extract described in Example 1 on glycation of porcine collagen. Briefly, a 60 mg/mL collagen solution (containing 0.06% sodium azide) and a 1.5 M fructose solution were first prepared using a 200 mM phosphate buffer (pH 7.4). For collagen to undergo glycation, a mixture of 0.2 mL of the collagen solution and 0.2 mL of the fructose solution was mixed thoroughly with 0.2 mL of the green mango extract sample at 140, 70, 14, 1.4, or 0.14 mg/mL (diluted with deionized water), or mixed with deionized water (as a control). The reaction mixtures were incubated at 50° C. for 24 hours. Thereafter, aminoguanidine (AG, purchased from Sigma) was added to terminate the glycation reaction. […] The reaction mixtures were incubated at 50° C. for 24 hours, and the fluorescence intensity of each of the mixtures (0.1 mL) at 0 hours and 24 hours was measured to calculate the rate of AGEs formation due to collagen glycation.

melanoma cells B16F10 = test: Melanin production assay in melanoma cells B16F10; type: cell-based, mouse; conditions: 0.25 mg/mL, 48 hours
Procedure: The melanin levels in B 16F10 melanoma cells were determined according to procedures described below. Cells were harvested from the cell culture treated as indicated. The cells were washed with PBS and treated with trypsin for 3 minutes. The suspended cells were collected by centrifugation (400×g, 5 minutes), washed twice with PBS, and then resuspended in 200 μL of PBS. The cell suspension was frozen in liquid nitrogen for 10 minutes and then left at room temperature for about 30 minutes until completely thawed, followed by centrifugation (12,000 g, 3 minutes) to remove the supernatant. The remaining cell pellet was mixed thoroughly with 120 μL of 1 N sodium hydroxide aqueous solution, and heated at 60° C. for 1 hour to obtain a cell lysate containing dissolved melanin. 100 μL of the cell lysate was transferred to a 96-well plate, and the absorbance at 450 nm (OD450) was measured using an enzyme-linked immunosorbent assay (ELISA) reader (BioTek). The relative melanin level is calculated according to the following formula: Relative melanin level (%)=(OD450each group/OD450mock control)×100% In order to examine the effect of the green mango extract on melanin production, the melanoma cells B16F10 was assayed for melanin production after treatment with the green mango extract described in Example 1. […]

O=C(OCC1OC(OC(=O)c2cc(O)c(O)c(O)c2)C(OC(=O)c2cc(O)c(O)c(O)c2)C(OC(=O)c2cc(O)c(O)c(O)c2)C1OC(=O)c1cc(O)c(O)c(O)c1)c1cc(O)c(O)c(O)c1 (stereo not drawn) [formula (II)]
AGEs formation compared to the control (porcine collagen): ~73.7%

O=C(OCC1OC(OC(=O)c2cc(O)c(O)c(O)c2)C(OC(=O)c2cc(O)c(O)c(O)c2)C(OC(=O)c2cc(O)c(O)c(O)c2)C1OC(=O)c1cc(O)c(O)c(O)c1)c1ccc(O)cc1 (stereo not drawn) [formula (I)]
AGEs formation compared to the control (porcine collagen): about 60.2%

O=c1cc(CO)occ1O [kojic acid]
inhibitory effect on melanin production, green mango extract versus kojic acid at the same concentration (melanoma cells B16F10): comparable
